The numbers were not newly measured in PMC11999338, “Factor XI localization in human deep venous thrombus and function of activated factor XI on venous thrombus formation and hemostasis” (Research and Practice in Thrombosis and Haemostasis, 2025), which cites them from elsewhere.

Read-outs that look alike come from different tables or passages of the source.

Data set [1] deals with inferior vena cava thrombus. Further details: method as in PMID 21614454. As to conditions: rabbits, i.v. administration; cited from earlier work.
The test system of data set [2] is VTE. To be noted: cited from earlier work.
On the set-up of data set [3]: method as in PMID 33450079. As to conditions: phase I, approximately 14 days in the fed state in healthy individuals; cited from earlier work.
Data set [4] deals with venous thrombus. Further details: method as in PMID 23925504. To be noted: mice, cited from earlier work.
The conditions of data set [5]: patients with atrial fibrillation; asundexian 50 mg, once daily; cited from earlier work.
The mark [6] stands for this setting: patients after knee arthroplasty, phase II.

Consider `CC(C)(C)NC(=O)N1CCN(C(=O)N2C(=O)[C@H](CCCN=C(N)N)[C@H]2C(=O)O)CC1` [BMS-262084], for which the “silk thread-induced thrombus in the inferior vena cava” value in data set [1] is “reduced”.
As to “osocimab: human monoclonal anti-FXI antibody”, in data set [2] (human, in vivo), the “major or clinically relevant nonmajor bleeding rate” value is on record as “approximately 4.7%”. Further, the “incidence of VTE at 10 to 13 days” value in data set [2] (single infusion, compared with enoxaparin, patients after knee arthroplasty) is listed as “noninferiority”.
In the case of `Nc1ccc(-c2nc([C@H]3CCc4cc(-c5cc(Cl)ccc5-n5cnnn5)cc(=O)n43)c(F)[nH]2)c(F)n1` (stereo in doubt) [ONO-7684], the safety and tolerability entry in data set [3] is “showed safety and tolerability”.
In the case of enoxaparin, the venous thrombus formation result in data set [4] (ferric chloride-induced) is “strongly inhibited”. Also, the bleeding time entry in data set [4] (tail cut) is given as “prolonged”. Further, in data set [2] (setting [6]), the “major or clinically relevant nonmajor bleeding rate” value is listed as about 5.9%.
For the compound `COc1ccc(-n2nc(C(N)=O)c3c2C(=O)N(c2ccc(N4CCCCC4=O)cc2)CC3)cc1` [apixaban], the bleeding rate in data set [5] is recorded as 2.4%. The “major or clinically relevant nonmajor bleeding rate” value in data set [2] (setting [6]) is about 2%.
